Data: US8063071B2 (GlaxoSmithKline, LLC, priority 2007, dated 2011)
pIC50: −log10 of the molar value. Structures can show the parent of a compound that is named as a salt.

Assays:
[1] = target: T1, Recombinant human IKKβ (residues 1-737) (Homo sapiens, UniProt O14920); experiment: IKK2 assay (TR-FRET); assay type: biochemical; details: ATP 1 μM final, read-out: pIC50 against IKK2 (converted)
T1 construct: Recombinant human IKKβ (residues 1-737); GST (C); made in house
T1 sequence (O14920 1-737): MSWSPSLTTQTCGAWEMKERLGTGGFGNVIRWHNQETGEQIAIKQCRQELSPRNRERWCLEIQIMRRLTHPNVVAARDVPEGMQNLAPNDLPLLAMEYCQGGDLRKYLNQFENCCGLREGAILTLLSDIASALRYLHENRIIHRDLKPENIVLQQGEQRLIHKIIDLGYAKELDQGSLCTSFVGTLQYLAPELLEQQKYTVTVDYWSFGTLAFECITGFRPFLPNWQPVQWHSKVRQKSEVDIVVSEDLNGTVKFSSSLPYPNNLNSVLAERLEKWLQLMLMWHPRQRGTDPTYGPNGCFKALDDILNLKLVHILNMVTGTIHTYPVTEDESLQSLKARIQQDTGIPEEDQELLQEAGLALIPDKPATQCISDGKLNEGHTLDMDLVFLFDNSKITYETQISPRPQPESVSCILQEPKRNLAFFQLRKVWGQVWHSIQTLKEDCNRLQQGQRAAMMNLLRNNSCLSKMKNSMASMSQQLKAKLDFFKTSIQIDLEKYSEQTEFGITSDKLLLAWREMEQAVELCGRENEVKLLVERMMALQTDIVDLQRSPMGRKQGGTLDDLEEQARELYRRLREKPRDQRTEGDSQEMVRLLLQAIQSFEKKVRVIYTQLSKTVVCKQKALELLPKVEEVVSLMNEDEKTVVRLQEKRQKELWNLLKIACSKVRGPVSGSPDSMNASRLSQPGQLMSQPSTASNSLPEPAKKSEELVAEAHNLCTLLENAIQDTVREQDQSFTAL
Summary of the method: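 Baculovirus-expressed C-terminal GST-tagged IKKβ (0.5-5 nM final) in HEPES pH 7.4, MgCl2, CHAPS, DTT, BSA with 1.7% DMSO; 25 nM GST-IB substrate and 1 μM ATP, 15 min at room temperature. EDTA stop; phospho-Ser32/36 detected by Eu-antibody/APC-anti-GST TR-FRET, 665/620 nm ratio.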

[2] = system: human monocyte stimulated cytokine production (TNF-α); experiment: Monocyte assay (LPS-stimulated TNF-α production); assay type: cell-based; details: for pIC50: 24 h, 200 ng/mL LPS, TNF-α by ELISA; for inhibition at 0.3 µM: read-out: inhibition at 300 nM in the monocyte assay
Summary of the method: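 Human CD14+ monocytes were purified from blood and plated at 1×10^6 cells/mL in RPMI 1640 with 10% FBS. Compound was added 30 min before stimulation with 200 ng/mL LPS (0.1% DMSO final), followed by 24 hrs at 37 C. Supernatant TNF-α was measured by ELISA, and viability by trypan blue exclusion.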

IC50 [1] | pIC50 [2] | SMILES | inhibition at 0.3 µM [2]
≤ 10 µM | ≥ 5.82 | CCNCCc1cccc(-c2cc(C(N)=O)c3[nH]cc(C4CCN(S(=O)(=O)CC)CC4)c3c2)c1 [Example 346, 5-{3-[2-(ethylamino)ethyl]phenyl}-3-[1-(ethylsulfonyl)-4-piperidinyl]-1H-indole-7-carboxamide trifluoroacetate] | 
≤ 10 µM |  | CCCNCCc1cccc(-c2cc(C(N)=O)c3[nH]cc(C4CCN(S(=O)(=O)CC)CC4)c3c2)c1 [Example 347, 3-[1-(ethylsulfonyl)-4-piperidinyl]-5-{3-[2-(propylamino)ethyl]phenyl}-1H-indole-7-carboxamide trifluoroacetate] | 0 to 60%
≤ 10 µM | ≥ 5.82 | CCS(=O)(=O)N1CCC(c2c[nH]c3c(C(N)=O)cc(-c4cccc(CCN(C)C)c4)cc23)CC1 [Example 348, 5-{3-[2-(dimethylamino)ethyl]phenyl}-3-[1-(ethylsulfonyl)-4-piperidinyl]-1H-indole-7-carboxamide trifluoroacetate] | 
≤ 10 µM |  | CCCN(CCC)CCc1cccc(-c2cc(C(N)=O)c3[nH]cc(C4CCN(S(=O)(=O)CC)CC4)c3c2)c1 [Example 349, 5-{3-[2-(dipropylamino)ethyl]phenyl}-3-[1-(ethylsulfonyl)-4-piperidinyl]-1H-indole-7-carboxamide trifluoroacetate] | 0 to 60%
≤ 10 µM |  | CCS(=O)(=O)N1CCC(c2c[nH]c3c(C(N)=O)cc(-c4cccc(CNCCn5nc(C)cc5C)c4)cc23)CC1 [Example 350, 5-[3-({[2-(3,5-dimethyl-1H-pyrazol-1-yl)ethyl]amino}methyl)phenyl]-3-[1-(ethylsulfonyl)-4-piperidinyl]-1H-indole-7-carboxamide trifluoroacetate] | 0 to 60%
≤ 10 µM |  | CCS(=O)(=O)N1CCC(c2c[nH]c3c(C(N)=O)cc(-c4csc(CN5CCOCC5)n4)cc23)CC1 [Example 351, 3-[1-(ethylsulfonyl)-4-piperidinyl]-5-[2-(4-morpholinylmethyl)-1,3-thiazol-4-yl]-1H-indole-7-carboxamide trifluoroacetate] | 0 to 60%
≤ 10 µM |  | CCS(=O)(=O)N1CCC(c2c[nH]c3c(C(N)=O)cc(-c4csc(CNCC(C)C)n4)cc23)CC1 [Example 352, 3-[1-(ethylsulfonyl)-4-piperidinyl]-5-(2-{[(2-methylpropyl)amino]methyl}-1,3-thiazol-4-yl)-1H-indole-7-carboxamide trifluoroacetate] | 0 to 60%
≤ 10 µM | ≥ 5.82 | CCS(=O)(=O)N1CCC(c2c[nH]c3c(C(N)=O)cc(-c4csc(CN5CCCC5)n4)cc23)CC1 [Example 353, 3-[1-(ethylsulfonyl)-4-piperidinyl]-5-[2-(1-pyrrolidinylmethyl)-1,3-thiazol-4-yl]-1H-indole-7-carboxamide] | 0 to 60%
≤ 10 µM |  | CCS(=O)(=O)N1CCC(c2c[nH]c3c(C(N)=O)cc(-c4csc(CN(C)C)n4)cc23)CC1 [Example 355, 5-{2-[(dimethylamino)methyl]-1,3-thiazol-4-yl}-3-[1-(ethylsulfonyl)-4-piperidinyl]-1H-indole-7-carboxamide trifluoroacetate] | 0 to 60%
≤ 10 µM | ≥ 5.82 | CCN(C)Cc1nc(-c2cc(C(N)=O)c3[nH]cc(C4CCN(S(=O)(=O)CC)CC4)c3c2)cs1 [Example 356, 5-(2-{[ethyl(methyl)amino]methyl}-1,3-thiazol-4-yl)-3-[1-(ethylsulfonyl)-4-piperidinyl]-1H-indole-7-carboxamide trifluoroacetate] | 
≤ 10 µM | ≥ 5.82 | CCS(=O)(=O)N1CCC(c2c[nH]c3c(C(N)=O)cc(-c4cc(C#N)cc(CNCC(C)C)c4)cc23)CC1 [Example 357, 5-(3-cyano-5-{[(2-methylpropyl)amino]methyl}phenyl)-3-[1-(ethylsulfonyl)-4-piperidinyl]-1H-indole-7-carboxamide trifluoroacetate] | 
≤ 10 µM | ≥ 5.82 | CCS(=O)(=O)N1CCC(c2c[nH]c3c(C(N)=O)cc(-c4cc(C#N)cc(CN(C)C)c4)cc23)CC1 [Example 358, 5-{3-cyano-5-[(dimethylamino)methyl]phenyl}-3-[1-(ethylsulfonyl)-4-piperidinyl]-1H-indole-7-carboxamide trifluoroacetate] | 
≤ 10 µM | < 6.00 | CCS(=O)(=O)N1CCC(c2c[nH]c3c(C(N)=O)cc(-c4cccc(CNC(=O)c5ccc(F)cc5)c4)cc23)CC1 [Example 360, 3-[1-(ethylsulfonyl)-4-piperidinyl]-5-[3-({[(4-fluorophenyl)carbonyl]amino}methyl)phenyl]-1H-indole-7-carboxamide trifluoroacetate] | 
≤ 10 µM | ≥ 5.82 | CCS(=O)(=O)N1CCC(c2c[nH]c3c(C(N)=O)cc(-c4cccc(CNC(=O)c5ccco5)c4)cc23)CC1 [Example 361, 3-[1-(ethylsulfonyl)-4-piperidinyl]-5-(3-{[(2-furanylcarbonyl)amino]methyl}phenyl)-1H-indole-7-carboxamide trifluoroacetate] | 
≤ 10 µM | < 6.00 | CCS(=O)(=O)N1CCC(c2c[nH]c3c(C(N)=O)cc(-c4cccc(CNC(=O)C5CCCC5)c4)cc23)CC1 [Example 362, 5-(3-{[(cyclopentylcarbonyl)amino]methyl}phenyl)-3-[1-(ethylsulfonyl)-4-piperidinyl]-1H-indole-7-carboxamide trifluoroacetate] | 
≤ 10 µM | < 6.00 | CCS(=O)(=O)N1CCC(c2c[nH]c3c(C(N)=O)cc(-c4cccc(CNC(=O)c5cc6ccccc6s5)c4)cc23)CC1 [Example 363, 5-(3-{[(1-benzothien-2-ylcarbonyl)amino]methyl}phenyl)-3-[1-(ethylsulfonyl)-4-piperidinyl]-1H-indole-7-carboxamide] | 
≤ 10 µM | ≥ 5.82 | CCS(=O)(=O)N1CCC(c2c[nH]c3c(C(N)=O)cc(-c4cccc(CNC(=O)C5CCN(C(C)=O)CC5)c4)cc23)CC1 [Example 364, 5-[3-({[(1-acetyl-4-piperidinyl)carbonyl]amino}methyl)phenyl]-3-[1-(ethylsulfonyl)-4-piperidinyl]-1H-indole-7-carboxamide] | 
≤ 10 µM | < 6.00 | CCS(=O)(=O)N1CCC(c2c[nH]c3c(C(N)=O)cc(-c4cccc(CNC(=O)c5cccn5C)c4)cc23)CC1 [Example 365, 3-[1-(ethylsulfonyl)-4-piperidinyl]-5-[3-({[(1-methyl-1H-pyrrol-2-yl)carbonyl]amino}methyl)phenyl]-1H-indole-7-carboxamide] | 
≤ 10 µM | ≥ 5.82 | CCS(=O)(=O)N1CCC(c2c[nH]c3c(C(N)=O)cc(-c4cccc(CNC(=O)Cc5cccs5)c4)cc23)CC1 [Example 366, 3-[1-(ethylsulfonyl)-4-piperidinyl]-5-(3-{[(2-thienylacetyl)amino]methyl}phenyl)-1H-indole-7-carboxamide] | 
≤ 10 µM | ≥ 5.82 | CCS(=O)(=O)N1CCC(c2c[nH]c3c(C(N)=O)cc(-c4cccc(CNC(=O)C5CCC5)c4)cc23)CC1 [Example 367, 5-(3-{[(cyclobutylcarbonyl)amino]methyl}phenyl)-3-[1-(ethylsulfonyl)-4-piperidinyl]-1H-indole-7-carboxamide] | 
≤ 10 µM | ≥ 5.82 | CCS(=O)(=O)N1CCC(c2c[nH]c3c(C(N)=O)cc(-c4cccc(CNC(=O)C5CC5)c4)cc23)CC1 [Example 368, 5-(3-{[(cyclopropylcarbonyl)amino]methyl}phenyl)-3-[1-(ethylsulfonyl)-4-piperidinyl]-1H-indole-7-carboxamide] | 
≤ 10 µM | ≥ 5.82 | CCS(=O)(=O)N1CCC(c2c[nH]c3c(C(N)=O)cc(-c4cccc(CNS(=O)(=O)C5CC5)c4)cc23)CC1 [Example 369, 5-(3-{[(cyclopropylsulfonyl)amino]methyl}phenyl)-3-[1-(ethylsulfonyl)-4-piperidinyl]-1H-indole-7-carboxamide] | 
≤ 10 µM | ≥ 5.82 | CCS(=O)(=O)N1CCC(c2c[nH]c3c(C(N)=O)cc(-c4cccc(CNS(=O)(=O)c5cc(Cl)ccc5Cl)c4)cc23)CC1 [Example 370, 5-[3-({[(2,5-dichlorophenyl)sulfonyl]amino}methyl)phenyl]-3-[1-(ethylsulfonyl)-4-piperidinyl]-1H-indole-7-carboxamide] | 
